In patent US10598653B2, “Methods of blocking cancer stem cell growth” (Bionomics Inc., priority 2011, dated 2020):

Assays:
[1] = test system: CT1 primary colon tumor xenograft; test: CT1 primary colon tumor xenograft, combination with Irinotecan; assay type: in vivo, SCID beige female mice; details: 10 mg/kg IP once per day for the first 5 days
Experimental: Single agent in vivo efficacy of murine antibodies 14F7.1, 18G7.1, 5B10.1, 14A8.1, 1B3.5 was evaluated in a primary colon tumor xenograft model system using CT1 primary xenograft cells. CT1 is a primary colorectal (CRC) in vivo xenograft tumor established from a fresh CRC patient tumor sample. The mutational status was determined by Ion Torrent deep sequencing to identify oncogene mutations. Approximately 5-15% of CT1 tumors express GPR49. SCID beige female mice were inoculated with CT1 tumor cells and monitored for tumor growth. Mice were randomized at day 0 into groups of 10 when mean tumor volume reached 175 mm^3. Chemotherapeutic Irinotecan was administered IP at 10 mg/kg once per day for the first 5 days. The antibodies were administered intraperitoneally (i.p.) at 15 mg/kg administered twice weekly for 4 weeks. Tumors were measured at the indicated intervals post-inoculation for total tumor volume.

[2] = test system: colon tumor cells re-implanted in secondary recipients; test: Secondary transplant tumor formation after GPR49 mAb+irinotecan; assay type: in vivo, mice; details: 140 day follow-up
From the text: Isolated tumor cells from control or GPR49 mAb+irinotecan treated tumors from the in vivo study outlined in Example 3 were harvested, pooled, dissociated and re-implanted in a limiting dilution secondary transplant assay to measure cancer stem cell frequency. For each treatment group, 8 mice were implanted with 10, 30, 100 cells. […]

GPR49-Fc = target: T1, GPR49-Fc (Homo sapiens, UniProt O75473); test: Solution affinity surface plasmon resonance of RSPO-1 on GPR49-Fc; details: initial binding rates, GPR49-Fc competition
T1 construct: FLAG (C)
Experimental: Methods: Binding of RSPO to GPR49 was analyzed using solution affinity surface plasmon resonance (Day E S, et al. Biochemistry. 2005 Feb. 15; 44(6):1919-31). The method utilizes conditions of so-called “mass-transport-limited” binding, in which the initial rate of ligand binding (protein binding to the sensor chip) is proportional to the concentration of ligand in solution (BIApplications Handbook (1994) Chapter 6: Concentration measurement, pp 6-1-6-10, Pharmacia Biosensor AB). Under these conditions, binding of the soluble analyte (protein flowing over chip surface) to the immobilized protein on the chip is fast compared to the diffusion of the analyte into the dextran matrix on the chip surface. Therefore, the diffusion properties of the analyte and the concentration of analyte in solution flowing over the chip surface determine the rate at which analyte binds to the chip. In this experiment, the concentration of free RSPO-1 in solution is determined by the initial rate of binding to a CM5 Biacore chip containing immobilized GPR49-Fc. Into these RSPO-1 solutions were titrated the competing GPR49-Fc.

T1 sequence (O75473 with tags, fused parts or gaps): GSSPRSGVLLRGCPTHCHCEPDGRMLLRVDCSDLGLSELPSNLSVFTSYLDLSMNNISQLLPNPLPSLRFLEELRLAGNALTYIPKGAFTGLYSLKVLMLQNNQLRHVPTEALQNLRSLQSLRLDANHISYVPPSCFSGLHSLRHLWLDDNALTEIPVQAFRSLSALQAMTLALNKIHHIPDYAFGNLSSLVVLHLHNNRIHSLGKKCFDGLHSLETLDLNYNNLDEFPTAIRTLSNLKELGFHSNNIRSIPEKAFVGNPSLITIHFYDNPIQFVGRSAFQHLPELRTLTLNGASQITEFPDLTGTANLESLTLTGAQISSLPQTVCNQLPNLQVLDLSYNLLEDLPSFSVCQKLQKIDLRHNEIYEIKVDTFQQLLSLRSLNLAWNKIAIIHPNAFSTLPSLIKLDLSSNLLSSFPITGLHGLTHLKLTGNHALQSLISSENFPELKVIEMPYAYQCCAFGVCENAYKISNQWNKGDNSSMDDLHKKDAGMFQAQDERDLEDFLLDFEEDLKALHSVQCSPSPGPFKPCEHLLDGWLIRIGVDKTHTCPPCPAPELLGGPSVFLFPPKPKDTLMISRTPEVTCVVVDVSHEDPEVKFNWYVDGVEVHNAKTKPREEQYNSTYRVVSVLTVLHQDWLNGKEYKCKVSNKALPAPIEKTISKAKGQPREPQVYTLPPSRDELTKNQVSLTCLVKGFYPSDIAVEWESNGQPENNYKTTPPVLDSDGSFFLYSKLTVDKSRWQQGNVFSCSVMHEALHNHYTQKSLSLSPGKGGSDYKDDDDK

binding profile (GPR49-Fc)	Molecule	tumor inhibition, Irinotecan alone [1]	average tumor size [2]
–	CCc1c2c(nc3ccc(OC(=O)N4CCC(N5CCCCC5)CC4)cc13)-c1cc3c(c(=O)n1C2)COC(=O)[C@]3(O)CC [Irinotecan]	45%	1729 mm^3
bi-phasic binding profile	R-spondin 1: R-spondin family Wnt-pathway modulator protein, purchased from R& D systems (protein, UniProt Q2MKA7 21-263, looked up) R-spondin-1: SRGIKGKRQRRISAEGSQACAKGCELCSEVNGCLKCSPKLFILLERNDIRQVGVCLPSCPPGYFDARNPDMNKCIKCKIEHCEACFSHNFCTKCKEGLYLHKGRCYPACPEGSSAANGTMECSSPAQCEMSEWSPWGPCSKKQQLCGFRRGSEERTRRVLHAPVGDHAACSDTKETRRCTVRRVPCPEGQKRRKGGQGRRENANRNLARKESKEAGAGSRRRKGQQQQQQQGTVGPLTSAGPA	–	–
